# Experimental data from PubChem BioAssay (NCI).
#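 Following 48 hours of exposure in 96-well plates, responses at five concentrations were used to interpolate endpoints linearly. At the TGI there is no net growth.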
# Legend:
# Test in all cases: inhibition of tumour cell growth, NCI panel, 48 h
# [1] = tested on: DU-145 prostate
# [2] = tested on: MDA-N
# [3] = tested on: NCI-H460 lung
# [4] = tested on: PC-3 prostate
# [5] = tested on: HOP-62 NSCLC
# [6] = tested on: NCI-H23 lung
# [7] = tested on: OVCAR-5 ovarian
# [8] = tested on: U251 CNS
# [9] = tested on: T-47D breast
# [10] = tested on: OVCAR-8 ovarian
# [11] = tested on: HS 578T breast
# [12] = tested on: SF-539 CNS
# [13] = tested on: SK-MEL-2 melanoma
# [14] = tested on: OVCAR-3 ovarian
# [15] = tested on: SF-268 CNS
# [16] = tested on: OVCAR-4 ovarian
# [17] = tested on: SK-MEL-28 melanoma
# [18] = tested on: ACHN renal
# [19] = tested on: NCI-H226 lung
# [20] = tested on: M14 melanoma
# [21] = tested on: IGROV1 ovarian
# [22] = tested on: SR leukemia
# [23] = tested on: COLO 205 colon
# [24] = tested on: UO-31 renal
# [25] = tested on: MOLT-4 leukemia
# [26] = tested on: HCT-116 colon
# [27] = tested on: HCC-2998 colon
# [28] = tested on: A549 NSCLC
# [29] = tested on: A498 renal
# [30] = tested on: HCT-15 colon
# [31] = tested on: RPMI-8226 leukemia
# [32] = tested on: HOP-92 NSCLC
# [33] = tested on: HT29 colon
# [34] = tested on: KM12 colon
# [35] = tested on: TK-10 renal
# [36] = tested on: UACC-257 melanoma
# [37] = tested on: MDA-MB-231 breast
# [38] = tested on: SN12C renal
# [39] = tested on: HL-60(TB) leukemia
# [40] = tested on: BT-549 breast
# [41] = tested on: K-562 leukemia
# [42] = tested on: UACC-62 melanoma
# [43] = tested on: NCI/ADR-RES ovarian
# [44] = tested on: SNB-19 CNS
# [45] = tested on: MDA-MB-435
# [46] = tested on: LOX IMVI melanoma
# [47] = tested on: CAKI-1 renal
# [48] = tested on: RXF 393 renal
# [49] = tested on: EKVX NSCLC
# [50] = tested on: NCI-H522 lung
# [51] = tested on: SK-MEL-5 melanoma
# [52] = tested on: SNB-75 CNS
# [53] = tested on: CCRF-CEM leukemia
# [54] = tested on: SK-OV-3 ovarian
# [55] = tested on: 786-0 renal
# [56] = tested on: SW-620 colon
# [57] = tested on: MALME-3M melanoma
# [58] = tested on: SF-295 CNS
# [59] = tested on: MCF7 breast
smiles,measurement,setting,value
CC(C)C[C@@H](NC(=O)[C@@H](Cc1cccc2ccccc12)NC(=O)N1CCOCC1)B(O)O,TGI,[1],> 100 µM
same,TGI,[2],41.8 µM
same,TGI,[3],> 100 µM
same,TGI,[4],> 100 µM
same,TGI,[5],> 100 µM
same,TGI,[6],> 100 µM
same,TGI,[7],> 100 µM
same,TGI,[8],> 100 µM
same,TGI,[9],> 100 µM
same,TGI,[10],> 100 µM
same,TGI,[11],> 100 µM
same,TGI,[12],> 100 µM
same,TGI,[13],> 100 µM
same,TGI,[14],85.8 µM
same,TGI,[15],> 100 µM
same,TGI,[16],> 100 µM
same,TGI,[17],64.1 µM
same,TGI,[18],> 100 µM
same,TGI,[19],36.8 µM
same,TGI,[20],78.7 µM
same,TGI,[21],> 100 µM
same,TGI,[22],> 100 µM
same,TGI,[23],> 100 µM
same,TGI,[24],> 100 µM
same,TGI,[25],96.5 µM
same,TGI,[26],> 100 µM
same,TGI,[27],> 100 µM
same,TGI,[28],> 100 µM
same,TGI,[29],93.8 µM
same,TGI,[30],> 100 µM
same,TGI,[31],> 100 µM
same,TGI,[32],> 100 µM
same,TGI,[33],> 100 µM
same,TGI,[34],> 100 µM
same,TGI,[35],90.7 µM
same,TGI,[36],> 100 µM
same,TGI,[37],> 100 µM
same,TGI,[38],> 100 µM
same,TGI,[39],> 100 µM
same,TGI,[40],> 100 µM
same,TGI,[41],> 100 µM
same,TGI,[42],> 100 µM
same,TGI,[43],> 100 µM
same,TGI,[44],> 100 µM
same,TGI,[45],42.9 µM
same,TGI,[46],> 100 µM
same,TGI,[47],> 100 µM
CCOC(=O)C(=Cc1ccccc1Cl)C(=O)OCC,TGI,[1],3.96 µM
same,TGI,[2],4.93 µM
same,TGI,[3],7.22 µM
same,TGI,[4],4.3 µM
same,TGI,[5],4.05 µM
same,TGI,[6],3.83 µM
same,TGI,[7],4.13 µM
same,TGI,[8],3.07 µM
same,TGI,[9],8.86 µM
same,TGI,[10],2.12 µM
same,TGI,[11],> 10 µM
same,TGI,[48],3.78 µM
same,TGI,[12],4.13 µM
same,TGI,[13],4.59 µM
same,TGI,[14],2.76 µM
same,TGI,[15],6.05 µM
same,TGI,[49],7.39 µM
same,TGI,[16],5.05 µM
same,TGI,[17],3.53 µM
same,TGI,[18],7.62 µM
same,TGI,[19],5.56 µM
same,TGI,[20],2.95 µM
same,TGI,[21],7.31 µM
same,TGI,[22],> 10 µM
same,TGI,[23],3.02 µM
same,TGI,[50],4.02 µM
same,TGI,[24],3.2 µM
same,TGI,[51],3.6 µM
same,TGI,[25],6.27 µM
same,TGI,[26],1.88 µM
same,TGI,[27],> 10 µM
same,TGI,[28],5.21 µM
same,TGI,[29],5 µM
same,TGI,[30],4.83 µM
same,TGI,[31],4.87 µM
same,TGI,[52],0.617 µM
same,TGI,[53],4.69 µM
same,TGI,[54],> 10 µM
same,TGI,[32],4.96 µM
same,TGI,[33],3.3 µM
same,TGI,[34],2.67 µM
same,TGI,[36],3.21 µM
same,TGI,[37],3.39 µM
same,TGI,[38],3.91 µM
same,TGI,[39],3.83 µM
same,TGI,[55],2.82 µM
same,TGI,[56],2.6 µM
same,TGI,[40],4.59 µM
same,TGI,[57],3.58 µM
same,TGI,[41],5.28 µM
same,TGI,[42],3.67 µM
same,TGI,[43],5.97 µM
same,TGI,[44],3.53 µM
same,TGI,[45],3.29 µM
same,TGI,[46],4.5 µM
same,TGI,[47],4.27 µM
same,TGI,[58],6.31 µM
O=C1OC(c2ccccc2)=N/C1=C\c1ccc(Br)cc1,TGI,[1],> 100 µM
same,TGI,[2],> 100 µM
same,TGI,[3],> 100 µM
same,TGI,[4],> 100 µM
same,TGI,[5],> 100 µM
same,TGI,[6],> 100 µM
same,TGI,[7],> 100 µM
same,TGI,[8],> 100 µM
same,TGI,[9],> 100 µM
same,TGI,[10],> 100 µM
same,TGI,[11],> 100 µM
same,TGI,[48],> 100 µM
same,TGI,[12],> 100 µM
same,TGI,[13],> 100 µM
same,TGI,[14],> 100 µM
same,TGI,[15],> 100 µM
same,TGI,[49],> 100 µM
same,TGI,[16],> 100 µM
same,TGI,[17],> 100 µM
same,TGI,[18],> 100 µM
same,TGI,[19],> 100 µM
same,TGI,[20],> 100 µM
same,TGI,[21],> 100 µM
same,TGI,[22],> 100 µM
same,TGI,[23],> 100 µM
same,TGI,[50],> 100 µM
same,TGI,[51],> 100 µM
same,TGI,[25],> 100 µM
same,TGI,[59],> 100 µM
same,TGI,[26],> 100 µM
same,TGI,[27],> 100 µM
same,TGI,[28],> 100 µM
same,TGI,[29],> 100 µM
same,TGI,[30],> 100 µM
same,TGI,[31],> 100 µM
same,TGI,[52],> 100 µM
same,TGI,[53],> 100 µM
same,TGI,[54],> 100 µM
same,TGI,[32],> 100 µM
same,TGI,[33],> 100 µM
same,TGI,[34],> 100 µM
same,TGI,[35],> 100 µM
same,TGI,[36],> 100 µM
same,TGI,[37],> 100 µM
same,TGI,[38],> 100 µM
same,TGI,[39],> 100 µM
same,TGI,[55],> 100 µM
same,TGI,[56],> 100 µM
same,TGI,[40],> 100 µM
same,TGI,[57],> 100 µM
same,TGI,[41],> 100 µM
same,TGI,[42],> 100 µM
same,TGI,[44],> 100 µM
same,TGI,[45],> 100 µM
same,TGI,[46],> 100 µM
same,TGI,[47],> 100 µM
same,TGI,[58],> 100 µM
